In paper PMC11480511 (Scientific Reports, 2024):
In brackets after ≈: the same amount, converted by molar mass. Read-outs that look alike come from different tables or passages of the source.

Legend:
SK-MEL-28 = assay: NCI single-dose growth inhibition screen; assay type: cell-based; settings: Homo sapiens; Melanoma SK-MEL-28; single dose 10^−5 M
786-0 = assay: NCI single-dose growth inhibition screen; assay type: cell-based; settings: Homo sapiens; Renal Cancer 786-0; single dose 10^−5 M
MALME-3 M = assay: NCI single-dose growth inhibition screen; assay type: cell-based; settings: Homo sapiens; Melanoma MALME-3 M; single dose 10^−5 M
LOX IMVI = assay: NCI single-dose growth inhibition screen; assay type: cell-based, human; settings: Melanoma LOX IMVI, single dose 10^−5 M; for inhibition at 10 µM: Homo sapiens, LOX IMVI
HL-60(TB) = assay: NCI single-dose growth inhibition screen; assay type: cell-based; settings: Homo sapiens; Leukemia HL-60(TB); single dose 10^−5 M
A498 = assay: NCI single-dose growth inhibition screen; assay type: cell-based, human; settings: single dose 10^−5 M; for inhibition at 10 µM: Homo sapiens, A498, Renal Cancer A498
SF-268 = assay: NCI single-dose growth inhibition screen; assay type: cell-based; settings: Homo sapiens; CNS Cancer SF-268; single dose 10^−5 M
human melanoma LOX IMVI = assay: cells
[1] = system: A498 renal cancer cell line; assay: cells; settings: Homo sapiens; for viability at 0.4 µM / viability at 1.6 µM / viability at 25 µM / viability at 100 µM: A498
UO-31 = assay: NCI single-dose growth inhibition screen; assay type: cell-based, human; settings: single dose 10^−5 M; for inhibition at 10 µM: Homo sapiens, UO-31, Renal Cancer UO-31
RXF 393 = assay: NCI single-dose growth inhibition screen; assay type: cell-based; settings: Homo sapiens; Renal Cancer RXF 393; single dose 10^−5 M
NCI-H460 = assay: NCI single-dose growth inhibition screen; assay type: cell-based; settings: Homo sapiens; Non-Small Cell Lung Cancer NCI-H460; single dose 10^−5 M
SN12C = assay: NCI single-dose growth inhibition screen; assay type: cell-based; settings: Homo sapiens; Renal Cancer SN12C; single dose 10^−5 M
SF-539 = assay: NCI single-dose growth inhibition screen; assay type: cell-based; settings: Homo sapiens; CNS Cancer SF-539; single dose 10^−5 M
A549/ATCC = assay: NCI single-dose growth inhibition screen; assay type: cell-based; settings: Homo sapiens; Non-Small Cell Lung Cancer A549/ATCC; single dose 10^−5 M
S. aureus ATCC 6538 = assay: Antibacterial screening, agar cup diffusion method; assay type: cell-based; settings: Staphylococcus aureus, ATCC6538; Gram + ve strain; read-out: Minimum inhibitory concentrations (MIC, µM) S. aureus ATCC 6538
Description: (§1) Anti-bacterial activity of the recently synthesized compounds 3a-k was evaluated at AUMC (Assiut University Mycological Centre), Assiut, Egypt. Assays were done against Gram-negative strains of K. pneumoniae (ATCC 100310, E. coli (ATCC 25922), Pseudomonas aeruginosa (ATCC 27853) and the Gram-positive S. aureus (ATCC 6538) strain utilizing standard agar cup diffusion method. The isolates from the four bacterial species examined were kept in TSB (Trypticase Soya Broth, Becton and Dickinson) with 10% glycerol at -70 °C and then subcultured on TSA (Trypticase Soya Agar, Becton and Dickinson) and TSB for 24 h at 37 °C former to inoculation. Bacterial isolates were then plated on sterile petri plates with 1 × 10^8 CFU/mL (0.5 McFarland turbidity) and 20 mL of Mueller Hinton Agar media (Oxoid) was then loaded. To ensure that the microorganisms were evenly dispersed, the plates were gently rotated before being left to harden on a level surface. Four equally spaced spherical-shaped wells (10 mm diameter) were painstakingly drilled using a sterilized cork bore after media solidification. All tested compounds under test underwent two-fold serial dilutions in a sequential manner. Three replications of 100 µL of each concentration were added to a well using a micropipette. Plates were then incubated for 24-hour at 37 °C. The average of the inhibition zones was then calculated. To determine the MICs, the natural logarithm of each diluted test substance’s concentration was plotted against the average area of the related inhibition zone. Following that, a regression line was created and the intercept on the ‘ln concentration” axis was determined, and the antilogarithm was calculated to indicate the MIC value[34],[63].

CAKI-1 = assay: NCI single-dose growth inhibition screen; assay type: cell-based; settings: Homo sapiens; Renal Cancer CAKI-1; single dose 10^−5 M
EKVX = assay: NCI single-dose growth inhibition screen; assay type: cell-based; settings: Homo sapiens; Non-Small Cell Lung Cancer EKVX; single dose 10^−5 M
MCF7 = assay: NCI single-dose growth inhibition screen; assay type: cell-based, human; settings: Homo sapiens, MCF7, Breast Cancer MCF7; single dose 10^−5 M
MDA-MB-468 = assay: NCI single-dose growth inhibition screen; assay type: cell-based; settings: Homo sapiens; Breast Cancer MDA-MB-468; single dose 10^−5 M
[2] = system: K. pneumoniae ATCC 10,031; assay: Antibacterial screening, agar cup diffusion method; assay type: cell-based; settings: read-out: Minimum inhibitory concentrations (MIC, µM) K. pneumoniae ATCC 10,031
Description: as §1

BT-549 = assay: NCI single-dose growth inhibition screen; assay type: cell-based; settings: Homo sapiens; Breast Cancer BT-549; single dose 10^−5 M
SNB-19 = assay: NCI single-dose growth inhibition screen; assay type: cell-based; settings: Homo sapiens; CNS Cancer SNB-19; single dose 10^−5 M
OVCAR-8 = assay: NCI single-dose growth inhibition screen; assay type: cell-based; settings: Homo sapiens; Ovarian Cancer OVCAR-8; single dose 10^−5 M
[3] = system: P. aeruginosa ATCC 27,853; assay: Antibacterial screening, agar cup diffusion method; assay type: cell-based; settings: Pseudomonas aeruginosa, ATCC27; Gram –ve strain; read-out: Minimum inhibitory concentrations (MIC, µM) P. aeruginosa ATCC 27,853
Description: as §1

NCI-H23 = assay: NCI single-dose growth inhibition screen; assay type: cell-based; settings: Homo sapiens; Non-Small Cell Lung Cancer NCI-H23; single dose 10^−5 M
SR = assay: NCI single-dose growth inhibition screen; assay type: cell-based; settings: Homo sapiens; Leukemia SR; single dose 10^−5 M
M14 = assay: NCI single-dose growth inhibition screen; assay type: cell-based; settings: Homo sapiens; Melanoma M14; single dose 10^−5 M
Description: Following the guidelines established by the drug evaluation department of the National Cancer Institute (NCI), USA, all target compounds 3a–l were examined against 60 cancer cell lines at a single concentration of 10 µM.
The anti-cancer potential of the tested compounds was evaluated at the National cancer institute (NCI), USA, against 9 panels of 60 various cell lines derived from nine human tumours available usually at NCI library. The procedures for the screening were described in details in NCI website (dttp://www.dtp.nci.nih.gov.) and were done according to NCI protocols[60] . The anticancer screening was carried out at single dose of 10^−5 M, NCI, Bethesda, USA. The results obtained as growth inhibition (%).

E. coli ATCC 25,922 = assay: Antibacterial screening, agar cup diffusion method; assay type: cell-based; settings: read-out: Minimum inhibitory concentrations (MIC, µM) E. coli ATCC 25,922
Description: as §1

NCI-H522 = assay: NCI single-dose growth inhibition screen; assay type: cell-based; settings: Homo sapiens; Non-Small Cell Lung Cancer NCI-H522; single dose 10^−5 M
HS 578T = assay: NCI single-dose growth inhibition screen; assay type: cell-based; settings: Homo sapiens; Breast Cancer HS 578T; single dose 10^−5 M
[4] = Klebsiella pneumoniae, ATCC10, Gram –ve strain
[5] = Escherichia coli, ATCC25, Gram –ve strain

O=C(O)c1cn(C2CC2)c2cc(N3CCN(C(=O)CCCN4C(=O)CSC4=O)CC3)c(F)cc2c1=O [3 L, 1-Cyclopropyl-7-(4-(4-(2,4-dioxothiazolidin-3-yl)butanoyl)piperazin-1-yl)-6-fluoro-4-oxo-1,4-dihydroquinoline-3-carboxylic acid]
inhibition at 10 µM (SK-MEL-28): 49.5% | inhibition at 10 µM (786-0): 4.8% | inhibition at 10 µM (MALME-3 M): < 0% | inhibition at 10 µM (LOX IMVI): 0% | Growth Inhibition (%) (LOX IMVI): - (- means no detected activity) | inhibition at 10 µM (HL-60(TB)): < 0% | inhibition at 10 µM (A498): 45.1% | Growth Inhibition (%) (A498; Renal Cancer A498): 45.1% | inhibition at 10 µM (SF-268): 15.1% | viability at 0.4 µM (human melanoma LOX IMVI): 84.8% | viability at 1.6 µM (human melanoma LOX IMVI): 78.9% | viability at 25 µM (human melanoma LOX IMVI): 59.8% | viability at 100 µM (human melanoma LOX IMVI): 49.1% | IC50 (human melanoma LOX IMVI; read-out: In vitro cytotoxicity (IC50) LOX IMVI (µM ± SEM)): 109 ± 6.15 µM | viability at 0.4 µM [1]: 92.2% | viability at 1.6 µM [1]: 80.2% | viability at 25 µM [1]: 59.6% | viability at 100 µM [1]: 49.1% | IC50 ([1]; A498, read-out: In vitro cytotoxicity (IC50) A498 cell line (µM ± SEM)): 80.7 ± 4.55 µM | inhibition at 10 µM (UO-31): 42% | Growth Inhibition (%) (UO-31; Renal Cancer UO-31): 41.0% | inhibition at 10 µM (RXF 393): 30.7% | inhibition at 10 µM (NCI-H460): 0% | inhibition at 10 µM (SN12C): 14.6% | inhibition at 10 µM (SF-539): 3.3% | inhibition at 10 µM (A549/ATCC): 6.7% | melting point: 230 °C | MIC (S. aureus ATCC 6538): > 20 µM | inhibition at 10 µM (CAKI-1): 22.7% | inhibition at 10 µM (EKVX): 23.8% | inhibition at 10 µM (MCF7): < 0% | inhibition at 10 µM (MDA-MB-468): 2.1% | MIC [2, 4]: > 20 µM | inhibition at 10 µM (BT-549): 4.8% | inhibition at 10 µM (SNB-19): 0% | inhibition at 10 µM (OVCAR-8): < 0% | MIC [3]: > 20 µM | inhibition at 10 µM (NCI-H23): 5.7% | inhibition at 10 µM (SR): < 0% | inhibition at 10 µM (M14): < 0% | MIC (E. coli ATCC 25,922; [5]): > 20 µM

COc1ccc(C=C2SC(=O)N(CCCC(=O)N3CCN(c4cc5c(cc4F)c(=O)c(C(=O)O)cn5C4CC4)CC3)C2=O)cc1 [3e, 1-cyclopropyl-6-fluoro-7-[4-[4-[5-[(4-methoxyphenyl)methylene]-2,4-dioxo-thiazolidin-3-yl]butanoyl]piperazin-1-yl]-4-oxoquinoline-3-carboxylic acid]
inhibition at 10 µM (SK-MEL-28): < 0% | inhibition at 10 µM (786-0): 18.7% | inhibition at 10 µM (MALME-3 M): 2.9% | inhibition at 10 µM (LOX IMVI): 42.5% | inhibition at 10 µM (NCI-H522): 25.7% | inhibition at 10 µM (HL-60(TB)): < 0% | inhibition at 10 µM (A498): 32% | inhibition at 10 µM (SF-268): 2.3% | viability at 0.4 µM (human melanoma LOX IMVI): 76.7% | viability at 1.6 µM (human melanoma LOX IMVI): 67.7% | viability at 25 µM (human melanoma LOX IMVI): 52% | viability at 100 µM (human melanoma LOX IMVI): 47.4% | viability at 0.4 µM [1]: 102% | viability at 1.6 µM [1]: 91.7% | viability at 25 µM [1]: 69.4% | viability at 100 µM [1]: 56.2% | inhibition at 10 µM (UO-31): 18.5% | inhibition at 10 µM (RXF 393): < 0% | inhibition at 10 µM (NCI-H460): 0% | inhibition at 10 µM (SN12C): < 0% | inhibition at 10 µM (SF-539): 6.5% | inhibition at 10 µM (A549/ATCC): 7.9% | MIC (S. aureus ATCC 6538): > 20 µM | inhibition at 10 µM (CAKI-1): 5.5% | inhibition at 10 µM (EKVX): 0.4% | inhibition at 10 µM (MCF7): < 0% | inhibition at 10 µM (MDA-MB-468): < 0% | inhibition at 10 µM (HS 578T): 2.4% | MIC ([2]; Gram –ve strain): 0.19 µM (≈ 0.121 µg/mL) | MIC [2, 4]: 0.13 to 0.8 µM (≈ 0.0825 to 0.508 µg/mL) | inhibition at 10 µM (BT-549): 10.3% | inhibition at 10 µM (SNB-19): 3.8% | inhibition at 10 µM (OVCAR-8): 5.3% | MIC [3]: > 20 µM | inhibition at 10 µM (NCI-H23): 2.6% | inhibition at 10 µM (SR): 4.3% | inhibition at 10 µM (M14): < 0% | MIC (E. coli ATCC 25,922; [5]): 1.94 to 2.6 µM (≈ 1.23 to 1.65 µg/mL) | MIC (E. coli ATCC 25,922; Gram –ve strain): 1.94 µM (≈ 1.23 µg/mL)
